Laboratory results: US20070161578A1, “Treatment of nonalcoholic fatty liver disease using cholesterol lowering agents and/or H3 receptor antagonist/inverse agonist” (priority 2005, published 2007)

Key:
DIO mice = experiment: DIO C57BL/6J mice on high fat/cholesterol diet, 4 weeks ezetimibe in diet (Example 3); format: in vivo; parameters: liver to body weight ratio (FIG. 6), top dose group: dose or concentration left out as unconfirmed
From the text: C57BL/6J mice were fed a high fat/cholesterol diet (Research Diets, with 45% Kcal fat and 0.12% w/w cholesterol) for 7 months after weaning.

Niemann-Pick type C mice = conditions: ezetimibe treatment; cited from earlier work
[1] = test system: Diet-induced obese (DIO) mice; experiment: Diet-induced obese (DIO) mice with hepatic steatosis, four weeks treatment (first example); format: in vivo; conditions: ezetimibe 5 mg/kg/day, formula XIIIA 12 mg/kg/day, or both
Method: The mice were sacrificed and the liver weight, liver triglyceride level and liver free cholesterol content were determined for each group were determined and summarized in FIGS. 1 to 4.

[2] = test system: Diet induced obese (DIO) mice; experiment: DIO mice with hepatic steatosis and fibrosis, plasma ALT after four weeks treatment (Example 2); format: in vivo; conditions: formula XIIID 9 mg/kg/day, alone or with ezetimibe 2 mg/kg/day
Method: Diet induced obese (DIO) mice, which had developed obesity, dyslipidemia, hepatic steatosis and fibrosis by feeding them a western diet containing 45% fat and 0.12% cholesterol for seven months, were divided into four groups and treated with nothing (control), ezetimibe (formula II) (2 mg/kg/day), the compound of formula XIIID (9 mg/kg/day) or a combination of ezetimibe (2 mg/kg/day) and compound of formula XIIID (9 mg/kg/day) for four weeks. The mice were sacrificed and the plasma alanine aminotransferase (ALT) enzyme activities, a plasma biomarker of liver injury with steatohepatitis, were determined for each group, this is summarized in FIG. 5.

[3] = after 4 weeks of ezetimibe treatment
[4] = after 4 weeks, ezetimibe-treated DIO mice compared to the control
[5] = after 4 weeks, livers from ezetimibe-treated mice
[6] = ezetimibe 1.6 and 5.3 mg/kg/day, compared to the control group

Compound: O=C1[C@H](CC[C@H](O)c2ccc(F)cc2)[C@@H](c2ccc(O)cc2)N1c1ccc(F)cc1 [ezetimibe]
- HDL-C (DIO mice; [3]): not changed
- LDL-C (DIO mice; [3]): significant decreases
- VLDL-C (DIO mice; [3]): significant decreases
- reduction of plasma triglyceride (DIO mice; [3]): 15%
- reduction of total plasma cholesterol (DIO mice; [3]): 30%
- liver to body weight ratio (DIO mice; [4]): significantly reduced
- liver wet weight (DIO mice; [4]): significantly reduced
- liver cholesteryl esters (DIO mice; [5]): significantly lower
- liver free cholesterol (DIO mice; [5]): significantly lower
- liver triglyceride (DIO mice; [5]): significantly lower
- liver triglyceride levels (FIG. 7), across doses (DIO mice; all groups that received ezetimibe, 4 weeks): dose-dependent decrease in liver triglyceride levels
- liver to body weight ratio (FIG. 6), across doses (DIO mice; ezetimibe 0.5, 1.6 and 5.3 mg/kg/day, 4 weeks): dose-dependent decrease in liver to body weight ratio
- liver cholesterol content (FIG. 9) (DIO mice; [6]): significant decrease in liver cholesterol content
- liver cholesteryl ester content (FIG. 8) (DIO mice; [6]): significant decrease in liver cholesteryl ester content
- liver to body weight ratio (FIG. 6), top dose group (DIO mice; ezetimibe, 4 weeks): greatest decline in liver to body weight ratio
- VLDL-TG production rates (DIO mice; ezetimibe-treated vs control DIO mice): comparable
- hepatic cholesterol accumulation (Niemann-Pick type C mice): reduced hepatic cholesterol accumulation
- histological abnormalities (Niemann-Pick type C mice): improved histological abnormalities
- liver enzymes (Niemann-Pick type C mice): improved
- effect in treating NAFLD (conclusion from FIGS. 1 to 4) [1]: effective in treating NAFLD
- liver cholesteryl ester content (FIG. 3) ([1]; vs control): decrease in liver cholesteryl ester content
- liver free cholesterol content (FIG. 4) ([1]; vs control): decrease in liver cholesterol content
- liver triglyceride levels (FIG. 2) ([1]; vs control): decrease in liver triglyceride levels
- liver weight (liver to body weight ratio, FIG. 1) ([1]; vs control): decrease in liver weight

Compound: CO/N=C(/c1ccccn1)C1CCN(C(=O)C2(F)CCN(Cc3ccnc(N)c3)CC2)CC1 [formula XIIID]
- plasma alanine aminotransferase (ALT) enzyme activities (FIG. 5) [2]: decrease in plasma ALT
